Laboratory results published in patent US20090022772A1, “BIOABSORBABLE ELASTOMERIC ARTERIAL SUPPORT DEVICE AND METHODS OF USE” (MediVas, LLC, priority 2007, published 2009).

Assay: Properties and self-adherence of PEA 4-Phe-4/EAC-2 mixture films, dry and after soaking in water
Format: physicochemical
Set-up: key to Self-adherence: (—) means: no self-adherence observed
Settings: for Self-adherence: folded film in water 24 hours
Text: At the first stage, this Example addresses the question of whether invention cross-linking agents can be used as plasticizers without causing the composition to undesirably adhere to the surface of other materials (for example, steel, and other medical device surfaces).

## C=C(C)C(=O)NC(Cc1ccccc1)C(=O)OCCCCCCOC(=O)C(Cc1ccccc1)NC(=O)C(=C)C [Phe-6-MA, dimethacrylate of bis(L-Phe)-1,6-hexanediol diester]
PEA 4-Phe-4/EAC-2 40/60 w/w
  Self-adherence: —
PEA 4-Phe-4/EAC-2 60/40 w/w
  Film properties, Dry: Hard
  Self-adherence: —
PEA 4-Phe-4/EAC-2 60/40 w/w, pre-soaked in water at room temperature for 24 hours
  Film properties, Wet: Elastic
PEA 4-Phe-4/EAC-2 80/20 w/w
  Film properties, Dry: Hard
  Self-adherence: —
